According to US11000627B2, “Treatment of implants with phosphonic acid compounds” (Nano Bridging Molecules SA, priority 2016, dated 2021):

Test: XPS phosphorus over metal ratio (surface coverage) on Titanium grade 23 dental implants
Assay type: physicochemical
Details: sonicated 65° C. 10 min, Metal = Ti2p + Al2s + V2p
Procedure: A Titanium grade 23 dental implant (bulk composition atomic concentration Titanium 90%, Aluminum 6%, Vanadium 4%; length 11.0 mm, diameter 3.75 mm) was provided with a roughened surface, produced by sand blasting and acid etching according to industry standards. The dental implant was immersed in 40 ml of a 2% (v/v) aqueous solution of deconex 15 PF-x (which is a phosphate free, potassium hydroxide based standard cleaning agent). The solution was placed in an ultrasonic bath (output frequency 30 kHz) and sonicated at 65° C. for 30 min. The implant was removed from the cleaning agent solution and rinsed with water as follows: 2 times with 40 ml, swirling at room temperature; 4 times with 40 ml, sonicating for 2 min at 65° C.; 1 time with 40 ml, swirling at room temperature. The implant was then placed into 5 ml of a 0.7 mM aqueous solution of 1,1,3,3-propane tetraphosphonic acid. The solution was placed in the ultrasonic bath and sonicated at 65° C. for 10 min. The implant was rinsed with water as follows: 2 times with 10 ml, swirling at room temperature; 1 time with 10 ml, sonicating for 2 min at 65° C.; 1 time with 10 ml, swirling at room temperature. The dental implant was dried in a desiccator over P2O5 and under vacuum (ca 20 mbar) for at least 3 hours.
Ten Titanium grade 23 dental implants (bulk composition atomic concentration Titanium 90%, Aluminum 6%, Vanadium 4%; length 11.0 mm, diameter 3.75 mm) were provided with a roughened surface, produced by sand blasting and acid etching according to industry standards. The dental implants were immersed in 400 ml of a 2% (v/v) aqueous solution of deconex 15 PF-x (which is a phosphate free, potassium hydroxide based standard cleaning agent). The solution was placed in an ultrasonic bath (output frequency 30 kHz) and sonicated at 65° C. for 30 min. The implants were removed from the cleaning agent solution and rinsed with water as follows: 2 times with 400 ml, swirling at room temperature; 4 times with 400 ml, sonicating for 2 min at 65° C.; 1 time with 400 ml, swirling at room temperature. The implants were then placed one after the other into 5 ml of a 0.7 mM aqueous solution of 1,1,3,3-propane tetraphosphonic acid. The solution was placed in the ultrasonic bath and sonicated at 65° C. for 10 min. After the treatment with the phosphonic acid, each implant was rinsed with water as follows: 1 time with 10 ml, swirling at room temperature; 1 time with 10 ml, sonicating for 2 min at 65° C.; 1 time with 10 ml, swirling at room temperature. The dental implants were dried in a desiccator over P2O5 and under vacuum (ca 30 mbar) for at least 3 hours.
A Titanium grade 23 dental implant (bulk composition atomic concentration Titanium 90%, Aluminum 6%, Vanadium 4%; length 13.0 mm, diameter 3.75 mm) was provided with a roughened surface, produced by sand blasting and acid etching according to industry standards. The implant was immersed in 13 ml of a 0.7 mM aqueous solution of 1,1,3,3-propane tetraphosphonic acid. The solution was placed in an ultrasonic bath and sonicated at room temperature for 10 min. The implant was rinsed with water as follows: 1 time with 10 ml, swirling at room temperature; 2 times with 10 ml, sonicating for 1 min at room temperature. The dental implant was dried in a heating oven (ca 70° C.) for at least 1 hour. […]
Following the surface treatment with one phosphonic acid compound as described in Examples 1 to 7 the samples were analyzed by X-ray photoelectron spectroscopy (XPS). […]

- Phosphorus/Metal (0.7 mM): 0.19
- Phosphorus/Metal (2 mM): 0.18
- Phosphorus/Metal (3.5 mM): 0.17
- Phosphorus/Metal (5 mM): 0.18
- Phosphorus/Metal (7 mM): 0.18
Structure (SMILES): O=P(O)(O)C(CC(P(=O)(O)O)P(=O)(O)O)P(=O)(O)O [1,1,3,3-propane tetraphosphonic acid]
